Measured values published in patent US20050106270A1, “Chemical treatment of in vivo tissue to alter charge and net charge density characteristics” (priority 2003, published 2005).
“And” between values parts separate entries of the source, which are not always exact repeats. Equal entries are not always repeated.

Key:
articular cartilage = experiment: Rabbit articular cartilage slices, stress-strain analysis and histology; settings: 3 minutes exposure; for High Modulus Region Pa) / Low Region Modulus (Pa): 5 mg/ml in 0.02M disodium phosphate; for histological examination, control vs treated articular cartilage: 5 mg/ml
Protocol: Articular cartilage was dissected from both femoral and tibial chondyles of sacrificed rabbits. Cartilage slices were stored in sterile physiological saline. Eight slices of similar size (about 2 mm×2 mm) were placed in individual Eppendorf tubes. Physiological saline was replaced with 0.02M disodium phosphate at pH 8.5. […] Three specimens were treated with 0.02M disodium phosphate containing 5 mg/ml glutaric anhydride (95%). The remaining three specimens were treated with 0.02M disodium phosphate containing 5 mg/ml of acetic anhydride. Samples were exposed to control solution or acylation chemical for 3 minutes and then washed three times with sterile phosphate buffered saline (0.04M) at pH 7.2.

dermal tissue = experiment: Second experiment: stress-strain analysis of dermal tissue strips (Sample C vs Sample D, FIG. 5); set-up: species or system human; settings: fresh 100 mg/mL anhydride solution
Protocol: FIG. 5 is a graph showing the stress-strain analysis of dermal tissue specimen C and dermal tissue specimen D after treating the specimens with the same acylating agent under different treatment conditions.
In a second experiment one strip (Sample C) of dermal tissue was exposed to a 100 mg/mL anhydride solution. A second strip (Sample D) was exposed to the same anhydride solution after about 2 minutes.

[1] = system: sclera tissue of bovine eyes; experiment: Softening of bovine sclera tissue, compression analysis; settings: 100 mg/mL, 1 minute exposure
Protocol: Bovine eyes were procured from a local slaughterhouse and stored in Optisol solution. Whole eyes were removed from the preservation solution and the sclera dried using Kim wipes. A solution of 0.2M disodium phosphate, pH 9.5 was applied to the dried sclera tissue. The tissue was exposed to the disodium phosphate solution for 1 minute. The tissue was again dried using a Kim wipe and a solution containing 100 mg/mL of glutaric anhydride in […] was exposed to the anhydride solution for 1 minute and the tissue then thoroughly rinsed with sterile 0.02M phosphate buffer, pH 7.2. The exposed tissue was examined for tissue softening. […] Sclera tissue softening was also obvious by application of thumb pressure to treated and untreated areas of the sclera tissue. It is proposed that sclera softening using acylating agents may be used to expand sclera tissue, thereby permitting more space for the ciliary body to expand and contract the lens.

[2] = system: processed human skin (lyophilized dermis); experiment: Acylation of processed human skin (lyophilized dermis), mechanical properties; settings: 1 minute treatment
Protocol: Processed human skin was obtained for treatment. The processed skin was comprised of lyophilized dermis. Four samples were tested, two 2 cm×4 cm specimens and two 2 cm×8 cm specimens. Two sets of specimens were treated with 50 mg/mL of glutaric anhydride (dose #1) and the other two sets with 100 mg/mL of glutaric anhydride (dose #2). The rejuvenation agents were prepared in dilute buffer solution. Prior to treatment with the active agent, skin specimens were pre-treated with buffer alone. Treatments were completed in 1 minute.

[3] = system: reconstituted, lyophilized human dermis; experiment: Third series: reconstituted lyophilized human dermis exposed to acylation agent
Text: In a third series of experiments, reconstituted, lyophilized human dermis samples were exposed to the acylation agents (glutaric anhydride). Again, dermal thickness increased from about 1 mm to 2 mm due to increased water binding. In addition, dermal pliability was increased as evidenced by the decreased relaxation time. It is hypothesized that the reactive agent changes the net charge distribution on collagen fibrils reducing the intensity of intrafibrillar interactions and increasing pliability. Increased water binding and pliability are characteristics associated with young skin.

[4] = system: cornea of enucleated porcine eyes; experiment: Enucleated porcine eyes, corneal power by topographical mapping (Optikon 2000); settings: for Post-treatment Power (D), corneal power by topographical mapping: 1 minute exposure
Text: Eyes were procured from a local slaughterhouse, positioned in a device to stabilize the eye and subjected to topographical evaluation using the Optikon 2000 system. The corneal surface was dried using sterile gauze and then wetted with drops of buffer solution. The wetted eyes were again dried and exposed again to the same solution. Then a peripheral ring around the circumference of the corneal surface, slightly away from the limbus and the central cornea, was carefully treated by adding drops of buffer containing the active agent, a 20 mg/ml solution of glutaric anhydride. The eyes were then reexamined topographically and photos taken. Following evaluation, the eyes were placed in OptiSol for storage pending additional evaluations. Three eyes were treated using this protocol. In two eyes the active agent at 20 mg/mL was applied to a ring around the corneal periphery. The exposure width was approximately 1 mm. In one eye the active agent at 20 mg/mL was applied to a 2 mm diameter area on the apex of the central cornea. The exposure time was 1 minute. All eyes were then washed with neutral pH phosphate buffer.

[5] = system: cornea of whole porcine (pig) eyes; experiment: Treatment of trephined enucleated porcine eyes, inspection of corneal curvature; settings: 50 mg/mL in 0.2M disodium phosphate pH 9.0, 1 minute, 7 mm trephined ring
Protocol: Whole, fresh porcine (pig) eyes were obtained from a local abattoir and immediately placed in Optisol GS preservation solution. The whole eye was placed in a holder allowing the corneal surface to be exposed. A 7 mm trephine was used to cut through the epithelium and penetrate the superficial corneal tissue. The corneal surface was then flooded with 0.2M disodium phosphate solution, pH 9.0. After 1 minute, the surface of the cornea was dried using an absorbent wipe (Kim Wipe). The corneal surface was immediately treated with 0.2M disodium phosphate solution, pH 9.0, containing 50 mg/mL of glutaric anhydride. After 1 minute of exposure, the cornea was flushed with phosphate buffered saline, pH 7.2. The surface of the cornea was inspected and the corneal curvature examined and compared to untreated eyes. […] The application of glutaric anhydride to a trephined peripheral ring of a pig cornea produced obvious flattening of the central cornea. It is believed that this technique might provide a simple, non-surgical method for treating myopia by inducing swelling in defined ring on the corneal periphery, thereby causing flattening of the central cornea.

cat cornea = experiment: In vivo cat model, corneal power by topographical mapping and optical examinations
Protocol: Two cats were treated with the active agent, glutaric anhydride. Treatment was applied to the right eye (OD) while the contra lateral eye (OS) served as a control. Buffer solution (0.02M disodium phosphate solution at pH 9.0) was first applied to the corneal surface. This was immediately followed by application of a solution of glutaric anhydride in disodium phosphate into a peripheral ring of a corneal mold placed on the corneal surface. The mold provided a tight seal to prevent migration of the active agent to the central cornea. Two treatment applications were provided at Day 1 and Day 7. The dosage of the active agent was 50 mg/mL. Eyes were examined for another 7 days following the second treatment.

SMILES: CC(=O)OC(C)=O [acetic anhydride]
- High Modulus Region Pa) (articular cartilage): 47.7 Pa
- Low Region Modulus (Pa) (articular cartilage): 16.6 Pa
- histological examination, control vs treated articular cartilage (articular cartilage): no differences

SMILES: O=C1CCCC(=O)O1 [glutaric anhydride]
- thickness of Sample C relative to Sample D (dermal tissue; vs Sample D (hydrolyzed solution)): significantly thicker
- elastic and viscous stress-strain curves (dermal tissue; vs Sample D (same solution after about 2 minutes, hydrolyzed)): shifted to higher percent strain
- sclera tissue softening by thumb pressure, treated vs untreated areas [1]: obvious
- low modulus by compression analysis ([1]; after 0.2M disodium phosphate pH 9.5): significant loss of low modulus
- Strain (%) ([2]; dose 50 mg/mL): 79%
- Stress (MPa) ([2]; dose 50 mg/mL): 2.5 MPa
- Thickness ([2]; dose 50 mg/mL): 1.77 mm
- Strain (%) ([2]; dose 100 mg/mL): 84%
- Stress (MPa) ([2]; dose 100 mg/mL): 2.7 MPa
- Thickness ([2]; dose 100 mg/mL): 2.55 mm
- dermal pliability [3]: increased
- relaxation time [3]: decreased
- dermal thickness after treatment ([3]; increased from about 1 mm): ~2 mm
- Post-treatment Power (D), corneal power by topographical mapping ([4]; 20 mg/mL applied to 2 mm diameter area on apex of central cornea): 41.3 D
- Post-treatment Power (D), corneal power by topographical mapping ([4]; 20 mg/mL applied to about 1 mm wide ring around corneal periphery): 37.4 D and 40.9 D
- appearance of eyes by visual examination ([4]; after treatment, 20 mg/mL, 1 minute): appeared clear
- increase of refractive power ([4]; treatment of the central cornea, 20 mg/mL): about 0.7 diopters
- reduction of corneal power ([4]; treatment of the periphery of the cornea, 20 mg/mL): more than 2 diopters
- central corneal surface compared to untreated eyes [5]: clearly depressed or flattened
- High Modulus Region Pa) (articular cartilage): 58.1 Pa
- Low Region Modulus (Pa) (articular cartilage): 26.7 Pa
- histological examination, control vs treated articular cartilage (articular cartilage): no differences
- optical examinations, including slit-lamp biomicroscopy and Shiotz tonometry, treated vs control eyes (cat cornea; 7 days following the second treatment, 50 mg/mL): no differences
- Average Post-treat (D), corneal power by topographical mapping (cat cornea; right eye (OD), 50 mg/mL in peripheral ring, two applications at Day 1 and Day 7): 38.88 D and 40.68 D
